Test results reported in publication PMC7023064, “Design, Synthesis, and Evaluation of Novel 2-Methoxyestradiol Derivatives as Apoptotic Inducers through an Intrinsic Apoptosis Pathway” (Biomolecules, 2020).
Where two headings read alike, the source gives them in different places.

Tests used:
[1] = test system: human breast adenocarcinoma MCF-7 cell lines; assay: MTT cytotoxicity assay, MCF-7; format: cell-based
Procedure: (§1) Human breast adenocarcinoma MCF-7 cell lines, human breast cancer MDA-MB-231 cell lines, and the normal human liver L-O2 cell lines were provided by Nanjing KeyGen Biotech Co. Ltd. (Nanjing, China). MCF-7 cells were cultured in a base medium (90% RPMI-1640 and 10% FBS) at 37 °C, 5% CO2 and a saturated humidity atmosphere. MDA-MB-231 cells were cultured in a base medium (90% […] and 10% FBS) at 37 °C, 5% CO2 and a saturated humidity atmosphere. L-O2 cells were cultured in a base medium (90% DMEM and 10% FBS) at 37 °C, 5% CO2 and a saturated humidity atmosphere.
(§2) The cytotoxicity of the tested compounds was determined using the 3-(4,5-dimethyl-2-thiazolyl)-2,5-diphenyl-2-H-tetrazolium bromide (MTT) assay. Cells were seeded in 96-well plates and incubated in a 5% CO2 incubator at 37 °C. When the cells adhered, compounds at different concentrations were added to every well. After incubation for another 72 h, MTT solution (5 mg/mL) was added into each well and cells were incubated for an additional 4 h. The viable cells were stained with MTT and scanned with an electrophotometer at 570 nm. Each concentration treatment was done in triplicate wells. The half maximal inhibitory concentration (IC50) values were estimated by fitting the inhibition data to a dose-dependent curve using a logistic derivative equation.

[2] = test system: human breast cancer MDA-MB-231 cell lines; assay: MTT cytotoxicity assay, MDA-MB-231; format: cell-based; details: mean ± SD of three experiments
Procedure: as §1, §2

MCF-7 cells [3] = assay: Mitochondrial membrane potential analysis (JC-1, flow cytometry); format: cell-based, human; details: 72 h, JC-1 (lower right quadrant)
Procedure: MCF-7 cells were incubated in triplicate and treated with compound 11/12a for 72 h. The cells were washed with PBS and stained with JC-1 dye (Keygen, KGA601) under dark conditions according to the manufacturer’s instructions. After incubation, the cells were washed twice with PBS, and the percentage of cells with collapsed or healthy mitochondrial membrane potentials (MMP) was monitored by flow cytometry analysis (FACS Calibur Becton-Dickinson, San Jose, California, USA).

MCF-7 cells [4] = assay: Cell apoptosis analysis (Annexin V-APC/7-AAD double staining); format: cell-based, human; details: 72 h
Procedure: MCF-7 cells at a density of 2 × 10^5 cells/well were seeded on each well of 6-well plates and allowed to grow overnight. Then the cells were treated with compound 11/12a (5, 10, and 20 μM) for 72 h, while cells without treatment were used as control group. The treated cells were trypsinized and washed with cold PBS twice, then centrifuged at 2000 rpm for 5 min and resuspended in 500 μL annexin V binding buffer. 5 μL of Annexin V- allophycocyanin (APC) was added, and the mixture was incubated in the dark at 25 °C for 15 min. Then, 5 μL of 7-AAD was added just prior to acquisition. Apoptosis was analyzed by Annexin V-APC and 7-AAD double staining by flow cytometry (FACS Calibur Becton-Dickinson, San Jose, Califormia, USA).

[5] = molecular target: T1, estradiol receptor alpha (ERα) (Homo sapiens, UniProt P03372); assay: Immunohistochemical (IHC) analysis of ERα; format: cell-based; details: 5, 10, and 20 μM, MCF-7 cells, dose-dependent
T1 construct: endogenous in cells; host or cells: MCF-7
T1 sequence (P03372 1-595): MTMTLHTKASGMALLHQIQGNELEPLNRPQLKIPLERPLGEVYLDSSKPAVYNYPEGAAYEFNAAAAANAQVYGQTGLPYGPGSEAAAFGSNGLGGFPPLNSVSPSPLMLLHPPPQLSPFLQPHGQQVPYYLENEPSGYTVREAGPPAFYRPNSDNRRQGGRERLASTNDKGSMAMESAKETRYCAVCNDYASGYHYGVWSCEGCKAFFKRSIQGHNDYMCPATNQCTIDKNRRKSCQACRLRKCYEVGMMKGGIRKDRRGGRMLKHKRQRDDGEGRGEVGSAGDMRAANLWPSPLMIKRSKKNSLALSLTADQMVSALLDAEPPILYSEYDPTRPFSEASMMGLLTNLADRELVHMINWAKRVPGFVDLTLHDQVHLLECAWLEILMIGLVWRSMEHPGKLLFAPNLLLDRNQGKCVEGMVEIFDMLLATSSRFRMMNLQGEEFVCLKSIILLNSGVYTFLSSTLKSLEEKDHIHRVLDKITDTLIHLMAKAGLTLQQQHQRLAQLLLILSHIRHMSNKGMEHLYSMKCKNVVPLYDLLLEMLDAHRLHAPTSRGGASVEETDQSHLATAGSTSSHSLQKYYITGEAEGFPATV
Procedure: MCF-7 cells were seeded in culture plates and treated with compound 11/12a (0, 5, 10, and 20 μM) for 72 h. Cells were collected and mounted on a slide, fixed for 30 min with 4% paraformaldehyde, and washed three times with PBS. 1% Triton X-100 was added to each cell sample, and it was permeabilized at room temperature for 10 min, then washed three times with PBS. Two drops of 3% H2O2-methanol solution were added to each cell section. After being blocked at room temperature for 10 min, the section was washed three times with PBS. Then, 50–100 μL of ready-to-use goat serum was added and cells were incubated for 20 min at room temperature. Before the cell section was incubated at 37 °C for 2 h in a wet box, 50–100 μL of a primary antibody (1:200 dilution) against estradiol receptor alpha (ERα) (Bs-1427R, Bioss Co. Ltd., Beijing, China) was added, and then washed three times with PBS. Subsequently, 50 μL of enhancer was added and cells were incubated for 30 min at room temperature, then washed three times with PBS. Fifty microliters of a universal IgG antibody-Fab fragment-HRP multimer was added dropwise, and the mixture was incubated at 37 °C for 30 min, then soaked and washed three times with PBS. After 2 drops of freshly prepared DAB (DAB-1031, MaXi Biotech Co. Ltd., FuZhou, China) solution were added to each cell section, the dyeing depth was observed under the microscope. […]

[6] = test system: MCF-7 and MDA-MB-231 cell lines; assay: MTT assay, summary over tested tumor cells; format: cell-based, human; details: for selectivity towards cancerous cell lines vs healthy cell line: MCF-7 and MDA-MB-231 vs L-O2
Procedure: as §1, §2

Compound | IC50 ([1]; Homo sapiens, MCF7, MTT, 72 h, mean ± SD of three experiments, read-out: IC50 MCF-7) [µM] | IC50 ([1]; Homo sapiens, MCF7, Table 2, mean ± SD of three experiments, read-out: IC50 for MCF-7) [µM] | IC50 ([1]; Homo sapiens, MCF7, pIC50 = −log(IC50), read-out: pIC50 for MCF-7 (converted)) [µM] | IC50 ([2]; Homo sapiens, MDA-MB-231, 72 h) [µM] | MCF-7 cells with collapsed MMP (MCF-7 cells [3]; 5 μM) [%] | MCF-7 cells with collapsed MMP (MCF-7 cells [3]; 10 μM) [%] | MCF-7 cells with collapsed MMP (MCF-7 cells [3]; 20 μM) [%] | total early and late apoptotic cells (MCF-7 cells [4]; 5 μM) [%] | total early and late apoptotic cells (MCF-7 cells [4]; 10 μM) [%] | total early and late apoptotic cells (MCF-7 cells [4]; 20 μM) [%] | interaction with ERα (nuclear colour, IOD value) [5] | IC50 ([6]; Homo sapiens, MCF-7 and MDA-MB-231, read-out: IC50, anti-proliferative activity against tested tumor cells) [µM] | selectivity towards cancerous cell lines vs healthy cell line [6] | melting point [°C] | IC50 ([1]; MTT, 72 h, mean ± SD of three experiments, read-out: IC50 MCF-7) [µM] | IC50 ([1]; Table 2, mean ± SD of three experiments, read-out: IC50 for MCF-7) [µM] | pIC50 for MCF-7 ([1]; pIC50 = −log(IC50)) | IC50 ([2]; 72 h) [µM]
COc1cc2c(cc1O)CC[C@@H]1[C@@H]2CC[C@]2(C)[C@@H](OCCCCCCCCn3c(=O)ccn([C@@H]4O[C@H](CO)[C@@H](O)[C@H]4O)c3=O)CC[C@@H]12 [Compound 11, 17 β-[8-(1-β-D-Ribofuranosyluracil-3-yl)-Octyloxy]-2-Methoxy-Estra-1,3,5(10)-Triene-3-ol] | 13.9 ± 0.16 | 13.9 ± 0.16 | 13.8 | 14 ± 1.08 | 7.95 | 14.13 | 38.88 | 13.21 | 33.24 | 67.74 | specific binding | 3.89 to 16.7 | ~7 fold | 95 to 96 | – | – | – | –
17 β-[6-(Uracil-3-yl)-Hexyloxy]-2-Methoxy-Estra-1,3,5(10)-Triene-3-ol [Compound 12a] | – | – | – | – | 8.78 | 14.56 | 39.75 | 12.1 | 30.86 | 67.28 | specific binding | – | about 6 fold | – | 11.2 ± 0.46 | 11.2 ± 0.46 | 4.95 | 13 ± 0.38
